Measurements taken from patent US4925664A, “Spider toxins and methods for their use as blockers of calcium channels and amino acid receptor function” (priority 1986, dated 1990).

System: transmission between the cochlear nerve afferents and the cochlear nucleus neurons
Experiment: Blockade of synaptic transmission in chick cochlear nucleus, in vitro chick brain stem preparation (field potential)
Type: cell-based
Conditions: conventional EAA receptor antagonists and agonists
Method: The toxin was bath-applied to cochlear nucleus neurons in an in vitro preparation of chick brain stem.
In order to test the effects of the spider venom, late embryos or hatchling chickens were used in all experiments. Brain stems were removed and maintained in vitro using methods known and described in the art, except that the temperature in the recording chamber was held at 32° C. The tissue was superfused in avian Tyrode solution at about 1 ml per minute.
The field potential evoked by direct electrical stimulation of the cochlear nerve was recorded with a 4M potassium acetate electrode. The short latency component of the field potential reflects the compound action […] of cochlear nerve axons. This afferent volley is followed by a negativity representing the postsynaptic response of NM neurons.

## N[C@@H](Cn1oc(=O)[nH]c1=O)C(=O)O [quisqualate]
  concentration required to completely suppress transmission: millimolar concentrations

## N[C@H](CCC(=O)NCC(=O)O)C(=O)O [-D-glutamylglycine]
  concentration required to completely suppress transmission: millimolar range

## O=C(O)[C@H]1CCCN[C@H]1C(=O)O (relative stereo) [cis-2,3-piperidine dicarboxylic acid]
  concentration required to completely suppress transmission: millimolar range
